In publication PMC3183052, “Immunoprotectivity of HLA-A2 CTL Peptides Derived from Respiratory Syncytial Virus Fusion Protein in HLA-A2 Transgenic Mouse” (PLoS ONE, 2011):

Key:
CD4+CD25+ T cells = assay: Infiltration of CD4+CD25+ T cells in the lungs after RSV challenge; format: in vivo, mouse; details: mice pre-immunized with peptide and challenged with live RSV; unshown results
splenocytic CD4+ T cells = assay: CFSE proliferation of CD4+ T cells after in vitro peptide restimulation; format: cell-based, mouse; details: mice immunized s.c. twice with 50 µg peptide in IFA; splenocytes restimulated with 10 µg/mL peptide for 8 days
Protocol: To screen the immunodominance of epitopic peptide in the induction of RSV-F specific Th1/Th2 expression, HLA-A*0201 transgenic C57BL/6 mice were anesthetized with isoflurane and immunized with 1×10^7 pfu/50 µL of rAd-F0 or rAd-LacZ or 1×10^4 live RSV B1 via the intranasal (i.n.) route. Twenty days later, the mice were given booster immunization i.n. with the same dose. After 10 days of boost, mice were sacrificed and splenocytes were isolated for the cytokine ELISPOT assay. […] Mice body weight was monitored daily.
The splenocytes were isolated, labeled with 5-(6)-carboxyfluorescein diacetate succinimidyl ester (CFSE) (Sigma-Aldrich) and stimulated in vitro with 10 µg/mL of the synthetic peptides for 4 or 8 days. Proliferation of splenocytic CD4^+ and CD8^+ T cells was analyzed by flow cytometry (BD FACSCalibur) using PE-Cy5-labeled specific antibody against CD4 (eBioscience) or CD8 (eBioscience), respectively. Cell division index (CDI), a ratio of CFSE-diluted CD4^+ or CD8^+ T cells stimulated by peptide to CFSE-diluted unstimulated CD4^+ or CD8^+ T cells, was calculated as shown below; [drawing 1] […]
Figure 2 Epitope-specific CD4^+ and CD8^+ T-cell activation in peptide-immunized HLA-A*0201 transgenic mice. […] Proliferation of CD4^+ (A) or CD8^+ (B) lymphocytes in response to the different CD8 epitopes was analyzed by flow cytometry using anti-CD4 or CD8 antibodies conjugated with PE-Cy5. […]

[1] = system: peptide-loaded dendritic cells from HLA-Tg B6 mice; assay: In vitro CTL assay (CFSE/7-AAD) with pulmonary effector lymphocytes; format: cell-based, mouse; details: pulmonary effector lymphocytes of immunized, RSV-challenged mice; peptide-loaded CFSE-labeled DCs; E:T 10:1 and 50:1; 7-AAD/CFSE flow cytometry
Protocol: Dendritic cells (DCs) isolated from HLA-A*0201-Tg B6 mice were used as target cells for CTL assay. Briefly, tibia were isolated from 6–8 weeks old mice and rinsed with 75% alcohol before their incubation with lymphocyte culture medium (LCM, RPMI containing 5% FBS, 20 mM HEPES, 50 µM 2-mecaptoenthanol, 1× P/S). The myeloid tissues were removed from the tibia with LCM and filtrated through 40 µm cell strainer (BD Falcon). The filtrates were centrifuged at 1200 rpm for 5 minutes and the cell pellet was resuspended in 2 mL RBC lysis solution (eBioscience), and incubated for 5 minutes followed by addition of 10 mL of 1× PBS buffer to stop lysis. […]
A non-radioactive assay for cell-mediated cytotoxicity using a green fluorescent probe CFSE to label target cells in combination with 7-amino-actinomycin D (7AAD), a red fluorescent probe to label dead effectors and target cells, was used to assess the presence of RSV F protein-specific CTLs in spleens or lungs of the immunized animals. […] CFSE was measured in FL1 channel and 7-AAD in FL3 channel. The percentage of CFSE/7-AAD double positive target cells (i.e., DCs cell death) was analyzed. […]
Figure 5 Induction of pulmonary IFN-γ and CTL activity in peptide immunized transgenic mice challenged with RSV. At day 4 post RSV infection, lung homogenates were prepared and the following were measured. […]

## YMLTNSELL [peptide 14, HLA-A*0201-restricted 9-mer synthetic peptide from F protein of RSV-B1 strain]
CD4+CD25+ T cells
  infiltration of CD4+CD25+ T cells in the lungs: increased infiltration
Splenocytic CD4+ T cells
  proliferation of CD4+ T cells (cell division index): insignificant proliferation
[1]
  CTL activity, target cell lysis: efficient in target cell lysis
